Here are results for twelve molecules from US10689383B2, “Optionally fused heterocyclyl-substituted derivatives of pyrimidine useful for the treatment of inflammatory, metabolic, oncologic and autoimmune diseases” (NUEVOLUTION A/S, priority 2014, dated 2020).

pIC50: −log10 of the molar value. Where only a bound is given, the exact number is not on record here.

The target of the assay is T1, human RORγt (Ligand Binding Domain) (Homo sapiens, UniProt P51449).
T1 construct: purchased Crelux (Planegg, Germany) batch no PC5032-1
T1 sequence (P51449 269-508 limits assumed): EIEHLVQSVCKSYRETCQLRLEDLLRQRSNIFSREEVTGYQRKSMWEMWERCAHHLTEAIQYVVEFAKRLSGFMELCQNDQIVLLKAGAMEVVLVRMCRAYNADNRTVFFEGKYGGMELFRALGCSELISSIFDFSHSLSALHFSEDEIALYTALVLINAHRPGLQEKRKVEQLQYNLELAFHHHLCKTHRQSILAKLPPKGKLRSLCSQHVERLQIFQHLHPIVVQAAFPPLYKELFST
The assay is described as follows: Fluorescence Polarization (FP) Assay. Conditions: Fluorescence Polarization (FP) Assay; values given as upper bounds of activity ranges; read-out: FP activity range. The protocol:
The activity of the compounds was evaluated using a Fluorescence Polarization (FP) Assay and, in most cases, a Th17 Assay and/or RORγ Reporter assay (also referred to as Gal4 assay). The FP assay is an in vitro assay monitoring binding within the ligand binding pocket. The RORγ and the Th17 assays are both cell-based assays monitoring functional activity of the compound assayed.
The total volume was 25 μl, in a black Perkin Elmer OptiPlate. As negative control, 1 μl DMSO was used. […] The probe is a fluorescently labeled (TAMRA) RORγt ligand identified by Nuevolution with a total molecular weight of 910 g/mole as shown in Graph A in FIG. 1.
Background: In fluorescence polarisation assays a small probe gives low polarisation when free and higher when bound to something large.
With `Cc1nc(N[C@H](CC(C)(C)C)C(N)=O)c(C)c(N2CCCC2c2ccc(C(F)(F)F)cc2)n1` (stereo partly drawn) [Example 15, (2R)-2-[[2,5-dimethyl-6-[2-[4-(trifluoromethyl)phenyl]pyrrolidin-1-yl]pyrimidin-4-yl]amino]-4,4-dimethyl-pentanamide], the pIC50 was > 5.00.
For the molecule `CC(C)(C)CCNc1ncnc(N2CCCC2c2ccc(C(F)(F)F)cc2)c1F` (stereo not drawn) [Example 21, N-(3,3-dimethylbutyl)-5-fluoro-6-[2-[4-(trifluoromethyl)phenyl]pyrrolidin-1-yl]pyrimidin-4-amine], the pIC50 is > 5.00.
For `O=C(O)Cc1ccc(CNc2ncnc(N3CCCC3c3ccc(C(F)(F)F)cc3)c2F)cc1` (stereo not drawn) [Example 32, 2-[4-[[[5-fluoro-6-[2-[4-(trifluoromethyl)phenyl]pyrrolidin-1-yl]pyrimidin-4-yl]amino]methyl]phenyl]acetic acid] the value was > 6.30; for `CC(C)C[C@@H](Nc1ncnc(N2CC(C)CC2c2ccc(C(F)(F)F)cc2)c1F)C(N)=O` (stereo partly drawn) [Example 34, (2R)-2-[[5-fluoro-6-[4-methyl-2-[4-(trifluoromethyl)phenyl]pyrrolidin-1-yl]pyrimidin-4-yl]amino]-4-methyl-pentanamide], > 6.00; for `CC1CC(c2ccc(C(F)(F)F)cc2)N(c2ncnc(N[C@H](Cc3ccc(F)cc3)C(N)=O)c2F)C1` (stereo partly drawn) [Example 37, (2R)-2-[[5-fluoro-6-[4-methyl-2-[4-(trifluoromethyl)phenyl]pyrrolidin-1-yl]pyrimidin-4-yl]amino]-3-(4-fluorophenyl)propanamide], > 6.00.
For `CC(CC1CCOCC1)Nc1ncnc(N2CCCC2c2ccc(C(F)(F)F)cc2)c1F` (stereo not drawn) [Example 41, 5-fluoro-N-(1-methyl-2-tetrahydropyran-4-yl-ethyl)-6-[2-[4-(trifluoromethyl)phenyl]pyrrolidin-1-yl]pyrimidin-4-amine] the value was > 5.70.
Then `O=C(O)c1ccc(CNc2ncnc(N3CCCC3c3ccc(C(F)(F)F)cc3)c2F)cc1` (stereo not drawn) [Example 44, 4-[[[5-fluoro-6-[2-[4-(trifluoromethyl)phenyl]pyrrolidin-1-yl]pyrimidin-4-yl]amino]methyl]benzoic acid], with > 5.00; and `CC1(C)NC(=O)N(Cc2ccc(CNc3ncnc(N4CCCC4c4ccc(C(F)(F)F)cc4)c3F)cc2)C1=O` (stereo not drawn) [Example 45, 3-[[4-[[[5-fluoro-6-[2-[4-(trifluoromethyl)phenyl]pyrrolidin-1-yl]pyrimidin-4-yl]amino]methyl]phenyl]methyl]-5,5-dimethyl-imidazolidine-2,4-dione], with > 5.00.
`NS(=O)(=O)Cc1ccc(CNc2ncnc(N3CCCC3c3ccc(C(F)(F)F)cc3)c2F)cc1` (stereo not drawn) [Example 46, [4-[[[5-fluoro-6-[2-[4-(trifluoromethyl)phenyl]pyrrolidin-1-yl]pyrimidin-4-yl]amino]methyl]phenyl]methane-sulfonamide]: the pIC50 was > 6.00.
With `Fc1c(NCc2ccc(C(F)(F)F)cc2)ncnc1N1CCCC1c1ccc(C(F)(F)F)cc1` (stereo not drawn) [Example 48, 5-fluoro-N-[[4-(trifluoromethyl)phenyl]methyl]-6-[2-[4-(trifluoromethyl)phenyl]pyrrolidin-1-yl]pyrimidin-4-amine], the pIC50 is > 5.70.
Then `CCC(Nc1ncnc(N2CCCC2c2ccc(C(F)(F)F)cc2)c1F)c1ccc2c(c1)OCCCO2` (stereo not drawn) [Example 55, N-[1-(3,4-dihydro-2H-1,5-benzodioxepin-7-yl)propyl]-5-fluoro-6-[2-[4-(trifluoromethyl)phenyl]pyrrolidin-1-yl]pyrimidin-4-amine], with > 5.00; and `O=C(c1ccc(CNc2ncnc(N3CCCC3c3ccc(C(F)(F)F)cc3)c2F)cc1)N1CCOCC1` (stereo not drawn) [Example 57, [4-[[[5-fluoro-6-[2-[4-(trifluoromethyl)phenyl]pyrrolidin-1-yl]pyrimidin-4-yl]amino]methyl]phenyl]-morpholino-methanone], with > 5.00.
